Tests used:
COVID-19 = conditions: hospitalized COVID-19 patients; cited from earlier work
SARS-CoV-2 mimics = assay: In vivo clearance of the SARS-CoV-2 mimicking virus by nanodecoys in mice; design: species or system CD1 mice; conditions: mouse

Compound | effect on overall mortality, necessity for mechanical ventilation, and length of hospital stay (COVID-19) | amounts of SARS-CoV-2 mimics in lungs (ex vivo imaging) (SARS-CoV-2 mimics)
lopinavir/ritonavir | little or no effect | 
CCN(CCO)CCCC(C)Nc1ccnc2cc(Cl)ccc12 (stereo not drawn) [hydroxychloroquine] | little or no effect | 
rACE2: free recombinant ACE2 protein, same amount of ACE2 as on the nanodecoys |  | ineffective
